In publication PMC10818931, “In Vitro Evaluation of Drug–Drug Interaction Potential of Epetraborole, a Novel Bacterial Leucyl-tRNA Synthetase Inhibitor” (Pharmaceuticals, 2024):
Like-named read-outs stand apart in the source and are kept apart here.

How the values were obtained:
Caco-2 cell monolayers = assay: Apparent permeability through Caco-2 cell monolayers; details: in vitro
Description: (§1) ^14C-EBO permeability in Caco-2 Cells (MDR1/Protein Glycoprotein or P-gp) was determined using methodologies described previously. The apparent permeability of ^14C-EBO was determined in both the apical to basolateral and the basolateral to apical directions, in triplicate, at final concentrations of 1, 10, and 100 μM. Cell monolayers were incubated with ^14C-EBO at 37 °C for 1, 2, 3, and 4 h. The transepithelial electrical resistance (TEER) values of the monolayers prior to and following each experiment were measured to confirm the integrity of the Caco-2 cell monolayers. The apparent permeability of ^14C-EBO (at a final concentration of 10 μM) was determined in both the apical to basolateral and basolateral to apical directions under the same conditions as previously described in the presence of P-gp inhibitors cyclosporine A (10 μM) and verapamil (100 μM) in the donor compartment.

[1] = as above; details: human, Caco-2
Description: as §1

P-gp [2] = biological target: T1, P-gp (Homo sapiens, UniProt P08183); assay: Inhibition of P-gp digoxin efflux transport in MDR1-MDCK cells
T1 sequence (P08183 whole entry): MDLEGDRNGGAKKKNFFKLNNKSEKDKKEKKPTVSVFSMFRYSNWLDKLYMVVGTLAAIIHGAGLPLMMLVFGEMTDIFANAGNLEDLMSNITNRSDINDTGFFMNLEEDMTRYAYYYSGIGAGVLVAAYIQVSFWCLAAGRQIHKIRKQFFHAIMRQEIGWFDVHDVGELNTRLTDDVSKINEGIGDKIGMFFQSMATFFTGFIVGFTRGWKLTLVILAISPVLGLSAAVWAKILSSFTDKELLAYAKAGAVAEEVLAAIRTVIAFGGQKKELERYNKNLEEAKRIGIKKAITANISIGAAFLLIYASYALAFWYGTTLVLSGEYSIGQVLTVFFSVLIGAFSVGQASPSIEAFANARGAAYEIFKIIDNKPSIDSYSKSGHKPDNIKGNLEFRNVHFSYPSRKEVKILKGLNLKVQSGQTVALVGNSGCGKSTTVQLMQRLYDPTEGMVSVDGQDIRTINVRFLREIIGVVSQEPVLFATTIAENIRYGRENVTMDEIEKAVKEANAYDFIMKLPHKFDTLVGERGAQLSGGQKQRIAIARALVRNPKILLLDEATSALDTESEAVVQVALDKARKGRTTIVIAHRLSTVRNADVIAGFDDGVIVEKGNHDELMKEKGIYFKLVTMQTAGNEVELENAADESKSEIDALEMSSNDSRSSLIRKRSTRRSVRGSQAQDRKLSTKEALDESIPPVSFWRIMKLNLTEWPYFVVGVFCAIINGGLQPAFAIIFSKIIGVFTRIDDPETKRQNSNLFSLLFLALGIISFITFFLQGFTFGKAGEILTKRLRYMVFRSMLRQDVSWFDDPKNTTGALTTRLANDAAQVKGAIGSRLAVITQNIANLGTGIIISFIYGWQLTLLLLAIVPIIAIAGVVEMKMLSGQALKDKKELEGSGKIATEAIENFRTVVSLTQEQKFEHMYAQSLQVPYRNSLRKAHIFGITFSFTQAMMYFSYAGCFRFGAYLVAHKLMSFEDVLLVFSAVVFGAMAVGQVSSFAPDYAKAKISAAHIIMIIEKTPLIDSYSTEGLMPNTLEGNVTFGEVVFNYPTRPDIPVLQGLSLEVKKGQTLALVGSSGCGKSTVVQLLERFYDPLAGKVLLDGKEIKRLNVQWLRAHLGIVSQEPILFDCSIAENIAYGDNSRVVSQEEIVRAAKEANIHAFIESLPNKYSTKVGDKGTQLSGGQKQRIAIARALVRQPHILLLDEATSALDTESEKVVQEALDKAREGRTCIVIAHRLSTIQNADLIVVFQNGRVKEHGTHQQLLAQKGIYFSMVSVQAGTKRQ
Description: A preincubation with EBO or known inhibitor was performed on both sides to preload the cells. After 30 min, the preincubation solution was aspirated. Aliquots of fresh dosing solution with or without EBO or known inhibitor (0.55 mL for AP-to-BL, 1.55 mL for BL-to-AP) were added to the donor compartment, and HBSSg_7.4 with or without EBO or known inhibitor (1.5 mL for AP-to-BL, 0.5 mL for BL-to-AP) were added to the receiver compartment. Receiver samples (200 µL) and donor samples (50 µL) were taken at preselected time points.
Cell monolayer integrity was examined using lucifer yellow (excitation 450 nm and emission 538 nm). The concentrations of the probe substrate in the donor and receiver samples, as well as EBO in dosing solutions, were determined by LC-MS/MS.

P-gp [3] = biological target: T1, P-gp; assay: Caco-2 efflux ratio without/with P-gp inhibitor (P-gp substrate); assay type: in vitro ADME; set-up: host or cells: Caco-2; details: for efflux ratio: Caco-2, 1, 10, 100 µM, 1–4 h
Description: as §1

P-gp [4] = biological target: T1, P-gp; assay: Effect on P-gp mediated transport of 3H-digoxin in Caco-2; assay type: in vitro ADME; set-up: host or cells: Caco-2
Description: The concentrations of each radiolabeled compound in the resulting samples were determined using liquid scintillation counting (LSC).

CYP3A4 = assay: Automated time-dependent inhibition assay in HLM; assay type: in vitro ADME, human; details: EBO 30 and 50 µM, 30 min preincubation with NADPH
Description: (§2) The effect of EBO (30 and 50 µM) on time-dependent inhibition of CYP3A4 (testosterone and midazolam substrate) and CYP2D6 ([…] substrate) was determined using methodologies described previously. The Genesis robot (Tecan, Reading, UK) running Gemini software (https://www.tecan.com) was used to perform a fully automated TDI assay. The assay ran a preincubation (30 min at 37 °C, 1 mg/mL HLM incubation containing 1 mM NADPH and EBO) and a secondary incubation (containing 50 µL aliquot from the preincubation, 1 mM NADPH, and substrates for CYP3A4 and CYP2D6). At the end of the secondary incubation (15 min at 37 °C), an aliquot (50 µL) was removed and added to 100 µL of methanol to quench the reaction. Quenched samples were then chilled at −20 °C for 2 h, centrifuged at 2000× g for 15 min, and the supernatants were transferred to microtiter plates for LC/MS-MS analysis.

major CYP enzymes = assay: Stability studies (CYP substrate potential, hepatic microsomes); assay type: in vitro ADME
CYP2E1 = biological target: T2, CYP2E1 (Homo sapiens, UniProt P05181); assay: CYP inhibition (direct and metabolism-dependent) in human hepatic microsomes; assay type: in vitro ADME
T2 construct: Characterized, pooled, human hepatic microsomes from 15 individuals; tissue CellzDirect (Durham, NC, USA) or XenoTech LLC (Lenexa, KS, USA); host or cells: pooled human liver microsomes (15 donors)
T2 sequence (P05181 whole entry): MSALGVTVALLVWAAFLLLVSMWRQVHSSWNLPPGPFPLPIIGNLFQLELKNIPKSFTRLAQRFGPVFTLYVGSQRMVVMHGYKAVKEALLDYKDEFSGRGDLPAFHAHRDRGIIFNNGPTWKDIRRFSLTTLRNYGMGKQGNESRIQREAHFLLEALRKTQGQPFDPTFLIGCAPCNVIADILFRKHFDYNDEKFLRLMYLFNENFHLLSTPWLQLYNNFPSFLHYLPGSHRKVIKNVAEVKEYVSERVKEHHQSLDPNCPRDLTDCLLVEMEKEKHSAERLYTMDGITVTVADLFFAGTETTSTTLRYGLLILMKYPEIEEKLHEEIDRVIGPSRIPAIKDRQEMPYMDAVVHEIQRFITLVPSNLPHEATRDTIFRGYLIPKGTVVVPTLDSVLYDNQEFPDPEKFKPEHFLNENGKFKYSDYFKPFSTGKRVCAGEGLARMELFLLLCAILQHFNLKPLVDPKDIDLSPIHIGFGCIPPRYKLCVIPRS
Description: (§3) The direct inhibitory potential of EBO on cytochrome P450 activities O-deethylase (CYP1A2), bupropion hydroxylase (CYP2B6), amodiaquine N-deethylase (CYP2C8), diclofenac 4′-hydroxylase (CYP2C9), S-mephenytoin 4′-hydroxylase (CYP2C19), bufuralol 1′-hydroxylase (CYP2D6), chlorzoxazone 6-hydroxylase (CYP2E1), testosterone 6β-hydroxylase (CYP3A), and midazolam 1′-hydroxylase (CYP3A) was assessed in vitro using human hepatic microsomes according to Covance Laboratory (Madison, WI, USA) SOP. A single substrate concentration was used, approximating the concentration of substrate that gives half the maximum reaction velocity (Km) for human hepatic microsomes for each cytochrome P450 activity. […] All sample and control incubations were performed in triplicate and were analyzed by LC-MS/MS. Incubation mixtures contained microsomal protein and substrate in a 0.1 M potassium phosphate buffer (pH 7.4) containing 1 mM EDTA (assay buffer). […] Incubations were terminated by the addition of 100 µL of an internal standard solution followed by vortex mixing. Protein was removed by centrifugation at 1500× g for 5 min at 4 °C, and supernatants were transferred to a separate plate and stored at 4 °C prior to LC-MS/MS analysis. The analyte for each activity assay was quantitated by comparison to a linear curve of an authentic standard prepared using human microsomal protein. […] Incubations were performed at substrate concentrations approximating the average Km values. […] For determination of control activities, NADPH was added after the addition of each substrate. Samples were then processed as previously described.

CYP2B6 = assay: as above; assay type: in vitro ADME
Description: as §3

CYP2C19 = biological target: T3, CYP2C19 (Homo sapiens, UniProt P33261); assay: as above; assay type: in vitro ADME
T3 construct: tissue CellzDirect; XenoTech LLC; host or cells: pooled human liver microsomes
T3 sequence (P33261 whole entry): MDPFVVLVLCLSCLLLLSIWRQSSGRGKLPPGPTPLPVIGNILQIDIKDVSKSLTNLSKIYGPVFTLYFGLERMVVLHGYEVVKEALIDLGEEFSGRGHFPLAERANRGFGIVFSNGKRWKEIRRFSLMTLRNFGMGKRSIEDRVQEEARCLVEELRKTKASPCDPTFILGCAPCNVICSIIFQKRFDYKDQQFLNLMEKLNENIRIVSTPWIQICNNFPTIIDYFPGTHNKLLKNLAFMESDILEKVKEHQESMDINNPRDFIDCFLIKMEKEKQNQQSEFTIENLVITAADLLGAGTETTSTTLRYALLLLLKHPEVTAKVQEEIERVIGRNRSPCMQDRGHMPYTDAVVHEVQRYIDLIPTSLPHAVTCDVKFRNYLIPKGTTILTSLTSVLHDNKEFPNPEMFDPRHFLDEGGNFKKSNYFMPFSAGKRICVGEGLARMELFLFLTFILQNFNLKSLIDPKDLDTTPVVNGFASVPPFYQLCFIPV
Description: as §3

CYP2D6 = biological target: T4, CYP2D6 (Homo sapiens, UniProt P10635); assay: Automated time-dependent inhibition assay in HLM; assay type: in vitro ADME; details: EBO 30 and 50 µM, 30 min preincubation with NADPH
T4 construct: Characterized, pooled, human hepatic microsomes from 15 individuals; tissue CellzDirect (Durham, NC, USA) or XenoTech LLC (Lenexa, KS, USA); host or cells: pooled human liver microsomes (15 donors)
T4 sequence (P10635 whole entry): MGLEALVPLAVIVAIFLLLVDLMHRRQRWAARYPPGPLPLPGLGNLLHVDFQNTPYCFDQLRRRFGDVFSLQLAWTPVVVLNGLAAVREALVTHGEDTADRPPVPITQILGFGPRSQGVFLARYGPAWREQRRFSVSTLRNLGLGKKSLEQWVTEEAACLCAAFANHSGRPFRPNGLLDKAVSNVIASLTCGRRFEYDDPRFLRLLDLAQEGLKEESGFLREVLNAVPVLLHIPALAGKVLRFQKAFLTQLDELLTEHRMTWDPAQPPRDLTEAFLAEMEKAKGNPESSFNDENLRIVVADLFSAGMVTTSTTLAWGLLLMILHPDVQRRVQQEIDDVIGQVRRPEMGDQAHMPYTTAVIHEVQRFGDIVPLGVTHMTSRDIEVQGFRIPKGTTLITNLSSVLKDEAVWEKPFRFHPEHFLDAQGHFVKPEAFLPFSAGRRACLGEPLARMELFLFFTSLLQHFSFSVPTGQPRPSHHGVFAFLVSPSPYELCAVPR
Description: as §2

[5] = metabolism-dependent inhibition

NC[C@H]1OB(O)c2c(OCCCO)cccc21 [EBO, Epetraborole]
Permeability (in words) (Caco-2 cell monolayers): low permeability | Papp A→B [1]: ≤ 0.31 ×10⁻⁶ cm/s | Papp B→A [1]: ≤ 0.35 ×10⁻⁶ cm/s | IC50 (P-gp [2]): 5650 µM | [Igut]/IC50 (P-gp [2]; human, pH 7.4): ≤ 3 | inhibition at 17000 µM (P-gp [2]; human, pH 7.4): > 50% | P-gp substrate (P-gp [3]; Caco-2, efflux ratio without/with P-gp inhibitor): not a P-gp substrate | efflux ratio (P-gp [3]; vehicle (no P-gp inhibitor), listed as 14C-EBO): <2 | efflux ratio (P-gp [3]; human, with cyclosporine A (10 µM), Cyclosporine A (10 µM), read-out: Efflux Ratio): < 2 | efflux ratio (P-gp [3]; human, with verapamil (100 µM), Verapmil (100 µM), read-out: Efflux Ratio): < 2 | efflux ratio (P-gp [3]; human, vehicle (no P-gp inhibitor), read-out: Efflux Ratio): < 2 | Inhibition of P-gp-mediated transport of digoxin (P-gp [4]): not a significant inhibitor | Efflux ratio of digoxin in the presence of test article (P-gp [4]; EBO 100 µM): unchanged | Time-dependent inhibition (CYP3A4): No time-dependent inhibition | Substrate for major CYP enzymes (stability studies) (major CYP enzymes): poor substrate | MDI IC50 Fold Change (CYP2E1; [5]): No | IC50 (CYP2E1; read-out: as an Inhibitor IC50): > 100 µM | IC50 (CYP2B6; human, human liver microsomes, pH 7.4, probe bupropion, read-out: as an Inhibitor IC50): > 100 µM | MDI IC50 Fold Change (CYP2B6; [5]): No | MDI IC50 Fold Change (CYP2C19; [5]): No | IC50 (CYP2C19; read-out: as an Inhibitor IC50): > 100 µM | Time-dependent inhibition (CYP2D6): No time-dependent inhibition
